This note sets out measurements from the supplement of paper PMC10307832.

Common to all, as to assay: relative viability (nuclei count vs DMSO), 5 days (fraction); higher = more cells survive
Compound in the assay “Everolimus + Trametinib”: CO[C@H]1C[C@@H]2CC[C@@H](C)[C@@](O)(O2)C(=O)C(=O)N2CCCC[C@H]2C(=O)O[C@H]([C@H](C)C[C@@H]2CC[C@@H](OCCO)[C@H](OC)C2)CC(=O)[C@H](C)/C=C(\C)[C@@H](O)[C@@H](OC)C(=O)[C@H](C)C[C@H](C)/C=C/C=C/C=C/1C [Everolimus] + CC(=O)Nc1cccc(-n2c(=O)n(C3CC3)c(=O)c3c(Nc4ccc(I)cc4F)n(C)c(=O)c(C)c32)c1 [Trametinib] (partner 0.02 µM)
In short, it runs like this:
(§1)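 For relative viability, nuclei counts in treated wells were divided by those in vehicle wells. Lung cancer cell lines had been pin-tool dosed in 1536-well plates the day after seeding and cultured for 5 days, then fixed and stained in one step (final 0.05% Triton X-100, 1% formaldehyde, 1 ug/ml Hoechst) and imaged at 4×. Doses were one drug alone or a fixed anchor-drug dose plus five library-drug doses (not always all listed) in √10 steps, and values are duplicate-plate medians.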

Compound in the assay “Everolimus + Pemetrexed”: CO[C@H]1C[C@@H]2CC[C@@H](C)[C@@](O)(O2)C(=O)C(=O)N2CCCC[C@H]2C(=O)O[C@H]([C@H](C)C[C@@H]2CC[C@@H](OCCO)[C@H](OC)C2)CC(=O)[C@H](C)/C=C(\C)[C@@H](O)[C@@H](OC)C(=O)[C@H](C)C[C@H](C)/C=C/C=C/C=C/1C [Everolimus] + Nc1nc2[nH]cc(CCc3ccc(C(=O)N[C@@H](CCC(=O)O)C(=O)O)cc3)c2c(=O)[nH]1 [Pemetrexed] (partner 0.2 µM)
In short, it runs like this:
as §1

Compound in the assay “Everolimus + Phenformin”: CO[C@H]1C[C@@H]2CC[C@@H](C)[C@@](O)(O2)C(=O)C(=O)N2CCCC[C@H]2C(=O)O[C@H]([C@H](C)C[C@@H]2CC[C@@H](OCCO)[C@H](OC)C2)CC(=O)[C@H](C)/C=C(\C)[C@@H](O)[C@@H](OC)C(=O)[C@H](C)C[C@H](C)/C=C/C=C/C=C/1C [Everolimus] + N=C(N)NC(=N)NCCc1ccccc1 [Phenformin] (partner 250 µM)
In short, it runs like this: as §1

Compound in the assay “Everolimus + Navitoclax”: CO[C@H]1C[C@@H]2CC[C@@H](C)[C@@](O)(O2)C(=O)C(=O)N2CCCC[C@H]2C(=O)O[C@H]([C@H](C)C[C@@H]2CC[C@@H](OCCO)[C@H](OC)C2)CC(=O)[C@H](C)/C=C(\C)[C@@H](O)[C@@H](OC)C(=O)[C@H](C)C[C@H](C)/C=C/C=C/C=C/1C [Everolimus] + CC1(C)CCC(c2ccc(Cl)cc2)=C(CN2CCN(c3ccc(C(=O)NS(=O)(=O)c4ccc(N[C@H](CCN5CCOCC5)CSc5ccccc5)c(S(=O)(=O)C(F)(F)F)c4)cc3)CC2)C1 [Navitoclax] (partner 0.5 µM)
In short, it runs like this: as §1

Turning to NCI-H650, the relative viability with Everolimus + Trametinib (first compound 0.01 µM) came to 1; with Everolimus + Trametinib (first compound 0.03162 µM), 0.687; with Everolimus + Trametinib (first compound 0.1 µM), 0.664; in the assay with Everolimus + Trametinib (first compound 0.3162 µM) it was 0.593; with Everolimus + Trametinib (first compound 1 µM), 0.497; in the assay with Everolimus + Pemetrexed (first compound 0.01 µM), 0.645. The relative viability in the assay with Everolimus + Pemetrexed (first compound 0.03162 µM) worked out at 0.606; with Everolimus + Pemetrexed (first compound 0.1 µM), 0.626; with Everolimus + Pemetrexed (first compound 0.3162 µM), 0.516; with Everolimus + Pemetrexed (first compound 1 µM), 0.591; with Everolimus + Phenformin (first compound 0.01 µM), 0.423; in the assay with Everolimus + Phenformin (first compound 0.1 µM) it was 0.431. The relative viability in the assay with Everolimus + Phenformin (first compound 0.3162 µM) stood at 0.364; in the assay with Everolimus + Phenformin (first compound 1 µM), 0.294.

With NCI-H647, the relative viability with Everolimus + Trametinib (first compound 0.01 µM) amounted to 0.258; in the assay with Everolimus + Trametinib (first compound 0.03162 µM) it was 0.318; with Everolimus + Trametinib (first compound 0.1 µM), 0.288; with Everolimus + Trametinib (first compound 0.3162 µM) it was 0.252; in the assay with Everolimus + Trametinib (first compound 1 µM), 0.293; with Everolimus + Navitoclax (first compound 0.01 µM), 0.782. The relative viability with Everolimus + Navitoclax (first compound 0.03162 µM) turned out to be 0.659; with Everolimus + Navitoclax (first compound 0.1 µM) it was 0.609; with Everolimus + Navitoclax (first compound 0.3162 µM), 0.646; with Everolimus + Navitoclax (first compound 1 µM), 0.748; with Everolimus + Pemetrexed (first compound 0.01 µM), 0.175; with Everolimus + Pemetrexed (first compound 0.03162 µM), 0.184. For the same cell line, the relative viability with Everolimus + Pemetrexed (first compound 0.1 µM) came out at 0.156; with Everolimus + Pemetrexed (first compound 0.3162 µM), 0.11; in the assay with Everolimus + Pemetrexed (first compound 1 µM), 0.175; with Everolimus + Phenformin (first compound 0.01 µM), 0.317; with Everolimus + Phenformin (first compound 0.03162 µM), 0.395; with Everolimus + Phenformin (first compound 0.1 µM), 0.338. Also, the relative viability in the assay with Everolimus + Phenformin (first compound 0.3162 µM) was 0.36; with Everolimus + Phenformin (first compound 1 µM) it was 0.537.

With 201T, the relative viability with Everolimus + Trametinib (first compound 0.01 µM) is 0.658; in the assay with Everolimus + Trametinib (first compound 0.03162 µM), 0.632; with Everolimus + Trametinib (first compound 0.1 µM), 0.586; with Everolimus + Trametinib (first compound 0.3162 µM), 0.595; with Everolimus + Trametinib (first compound 1 µM), 0.57; in the assay with Everolimus + Navitoclax (first compound 0.01 µM), 1. In addition, the relative viability with Everolimus + Navitoclax (first compound 0.03162 µM) stood at 1.09; with Everolimus + Navitoclax (first compound 0.1 µM) it was 1.05; in the assay with Everolimus + Navitoclax (first compound 0.3162 µM) it was 1.07; with Everolimus + Navitoclax (first compound 1 µM), 1.03; with Everolimus + Pemetrexed (first compound 0.01 µM) it was 0.365; with Everolimus + Pemetrexed (first compound 0.03162 µM), 0.383. Also, the relative viability with Everolimus + Pemetrexed (first compound 0.1 µM) stood at 0.32; with Everolimus + Pemetrexed (first compound 0.3162 µM), 0.307; with Everolimus + Pemetrexed (first compound 1 µM), 0.317; in the assay with Everolimus + Phenformin (first compound 0.01 µM), 0.499; with Everolimus + Phenformin (first compound 0.03162 µM) it was 0.443; in the assay with Everolimus + Phenformin (first compound 0.1 µM) it was 0.406. Further, the relative viability with Everolimus + Phenformin (first compound 0.3162 µM) was determined as 0.425; in the assay with Everolimus + Phenformin (first compound 1 µM), 0.484.

Consider NCI-H838, for which the relative viability with Everolimus + Trametinib (first compound 0.01 µM) amounted to 0.288; in the assay with Everolimus + Trametinib (first compound 0.03162 µM), 0.267; with Everolimus + Trametinib (first compound 0.1 µM), 0.278; with Everolimus + Trametinib (first compound 0.3162 µM), 0.263; in the assay with Everolimus + Trametinib (first compound 1 µM), 0.28; with Everolimus + Navitoclax (first compound 0.01 µM) it was 0.57. The relative viability came to 0.54 with Everolimus + Navitoclax (first compound 0.03162 µM); 0.499 in the assay with Everolimus + Navitoclax (first compound 0.1 µM); 0.588 with Everolimus + Navitoclax (first compound 0.3162 µM); 0.495 with Everolimus + Navitoclax (first compound 1 µM); 0.229 with Everolimus + Pemetrexed (first compound 0.01 µM); 0.213 in the assay with Everolimus + Pemetrexed (first compound 0.03162 µM). Also, the relative viability was 0.241 with Everolimus + Pemetrexed (first compound 0.1 µM); 0.228 with Everolimus + Pemetrexed (first compound 0.3162 µM); 0.222 in the assay with Everolimus + Pemetrexed (first compound 1 µM); 0.331 with Everolimus + Phenformin (first compound 0.01 µM); 0.355 with Everolimus + Phenformin (first compound 0.03162 µM); 0.267 with Everolimus + Phenformin (first compound 0.1 µM). Further, the relative viability worked out at 0.313 with Everolimus + Phenformin (first compound 0.3162 µM) and 0.363 with Everolimus + Phenformin (first compound 1 µM).

For NCI-H1299, the relative viability with Everolimus + Navitoclax (first compound 0.01 µM) is 1.03; in the assay with Everolimus + Navitoclax (first compound 0.03162 µM) it was 1.03; with Everolimus + Navitoclax (first compound 0.1 µM), 1.04; in the assay with Everolimus + Navitoclax (first compound 0.3162 µM) it was 1.08; in the assay with Everolimus + Navitoclax (first compound 1 µM) it was 1.07.

NCI-H2342: the relative viability with Everolimus + Trametinib (first compound 0.01 µM) turned out to be 0.649; with Everolimus + Trametinib (first compound 0.03162 µM) it was 0.54; in the assay with Everolimus + Trametinib (first compound 0.1 µM) it was 0.482; with Everolimus + Trametinib (first compound 0.3162 µM) it was 0.468; with Everolimus + Trametinib (first compound 1 µM), 0.583; with Everolimus + Pemetrexed (first compound 0.01 µM) it was 0.559. Also, the relative viability with Everolimus + Pemetrexed (first compound 0.03162 µM) came out at 0.478; with Everolimus + Pemetrexed (first compound 0.1 µM), 0.446; with Everolimus + Pemetrexed (first compound 0.3162 µM), 0.584; in the assay with Everolimus + Pemetrexed (first compound 1 µM), 0.477; in the assay with Everolimus + Phenformin (first compound 0.01 µM), 0.436; in the assay with Everolimus + Phenformin (first compound 0.03162 µM), 0.34. Moreover, the relative viability came out at 0.352 with Everolimus + Phenformin (first compound 0.1 µM), 0.411 with Everolimus + Phenformin (first compound 0.3162 µM) and 0.49 with Everolimus + Phenformin (first compound 1 µM).

With LCLC-103H, the relative viability with Everolimus + Trametinib (first compound 0.01 µM) came to 0.605; with Everolimus + Trametinib (first compound 0.03162 µM), 0.659; in the assay with Everolimus + Trametinib (first compound 0.1 µM), 0.661; with Everolimus + Trametinib (first compound 0.3162 µM) it was 0.601; in the assay with Everolimus + Trametinib (first compound 1 µM), 0.591; with Everolimus + Pemetrexed (first compound 0.01 µM) it was 0.43. The relative viability with Everolimus + Pemetrexed (first compound 0.03162 µM) amounted to 0.453; with Everolimus + Pemetrexed (first compound 0.1 µM) it was 0.472; in the assay with Everolimus + Pemetrexed (first compound 0.3162 µM) it was 0.45; in the assay with Everolimus + Pemetrexed (first compound 1 µM), 0.438; in the assay with Everolimus + Phenformin (first compound 0.01 µM), 0.309; with Everolimus + Phenformin (first compound 0.03162 µM), 0.274. For the same cell line, the figures for the relative viability with Everolimus + Phenformin (first compound 0.1 µM), in the assay with Everolimus + Phenformin (first compound 0.3162 µM) and in the assay with Everolimus + Phenformin (first compound 1 µM) were 0.294, 0.309 and 0.331, respectively.

For the cell line ABC-1, the relative viability with Everolimus + Phenformin (first compound 0.01 µM) worked out at 0.223; with Everolimus + Phenformin (first compound 0.03162 µM), 0.249; with Everolimus + Phenformin (first compound 0.1 µM) it was 0.21; in the assay with Everolimus + Phenformin (first compound 0.3162 µM), 0.203; in the assay with Everolimus + Phenformin (first compound 1 µM) it was 0.264.

For NCI-H358, the relative viability was 0.105 with Everolimus + Trametinib (first compound 0.01 µM); 0.102 in the assay with Everolimus + Trametinib (first compound 0.03162 µM); 0.114 with Everolimus + Trametinib (first compound 0.1 µM); 0.129 with Everolimus + Trametinib (first compound 0.3162 µM); 0.109 with Everolimus + Trametinib (first compound 1 µM); 0.173 with Everolimus + Pemetrexed (first compound 0.01 µM). For the same cell line, the relative viability amounted to 0.162 with Everolimus + Pemetrexed (first compound 0.03162 µM); 0.162 in the assay with Everolimus + Pemetrexed (first compound 0.1 µM); 0.158 in the assay with Everolimus + Pemetrexed (first compound 0.3162 µM); 0.153 in the assay with Everolimus + Pemetrexed (first compound 1 µM); 0.208 with Everolimus + Phenformin (first compound 0.01 µM); 0.25 with Everolimus + Phenformin (first compound 0.03162 µM). The values for the relative viability in the assay with Everolimus + Phenformin (first compound 0.1 µM), with Everolimus + Phenformin (first compound 0.3162 µM) and in the assay with Everolimus + Phenformin (first compound 1 µM) were 0.227, 0.234 and 0.298, respectively.

Take NCI-H1563: the relative viability with Everolimus + Pemetrexed (first compound 0.01 µM) stood at 0.715; with Everolimus + Pemetrexed (first compound 0.03162 µM), 0.572; with Everolimus + Pemetrexed (first compound 0.1 µM), 0.618; in the assay with Everolimus + Pemetrexed (first compound 0.3162 µM), 0.576; with Everolimus + Pemetrexed (first compound 1 µM), 0.546; with Everolimus + Phenformin (first compound 0.01 µM), 0.658. For the same cell line, the relative viability is 0.661 with Everolimus + Phenformin (first compound 0.03162 µM), 0.657 with Everolimus + Phenformin (first compound 0.1 µM), 0.657 with Everolimus + Phenformin (first compound 0.3162 µM) and 0.592 with Everolimus + Phenformin (first compound 1 µM).

As to EBC-1, the relative viability with Everolimus + Navitoclax (first compound 0.01 µM) came to 0.211; with Everolimus + Navitoclax (first compound 0.03162 µM) it was 0.217; with Everolimus + Navitoclax (first compound 0.1 µM) it was 0.153; with Everolimus + Navitoclax (first compound 0.3162 µM), 0.22; with Everolimus + Navitoclax (first compound 1 µM), 0.222.

With Calu-6, the relative viability turned out to be 0.774 in the assay with Everolimus + Navitoclax (first compound 0.01 µM); 0.714 with Everolimus + Navitoclax (first compound 0.03162 µM); 0.779 with Everolimus + Navitoclax (first compound 0.1 µM); 0.7 with Everolimus + Navitoclax (first compound 0.3162 µM); 0.532 with Everolimus + Navitoclax (first compound 1 µM).
